System: Melanoderm cultures
Experiment: Solvable melanin assay on Melanoderm cultures (3-D skin model)
Format: cell-based
Settings: for OD = 490 nm (melanin content): Melanoderm cultures fed every other day for 2 weeks, Untreated control 1.259, ETOH control 1.035
Description: This experiment was carried out using a Melanoderm cultures. […] was measured using a chromameter to assay the degree of melanization of a 3-D skin model. Melanoderm cultures were obtained from MatTek Corporation, Ashland, Mass. The Melanoderm was maintained according to the manufacturer's instructions. The basal media used for the maintenance of the Melanoderm cultures was DMEM supplemented with unspecified quantities of Epidermal growth factor, Insulin, Hydrocortisone, and proprietary epidermal differentiation compounds, in addition to anti-fungal and antibiotics. For the long term maintenance of the Melanoderms, the basal media was supplemented with both bFGF and a-MSH, compounds which are stimulators of melanocyte growth and melanogenesis. The cultures were fed every other day for a total of 2 weeks—fresh active preparations, prepared in DMSO or culture media, were also applied to the Melanoderms when feeding was performed. Each treatment condition was done in duplicate and digital photographs were taken of the Melanoderm cultures to assess overall pigmentation. As well, microscopic images of the Melanoderms were done to assess the cell viability of the keratinocytes and melanocytes. For further evidence that the treatments were/not cytotoxic, an LDH assay (Promega, Madison, Wis.) was performed on the supernatants from 24 hour post-treatment cultures. After treatment, tissues are usually frozen until completion of the experiment. Thaw tissues, a few at a time and place in D-PBS to remove excess phenol red from the culture medium and residual test article. Remove a single tissue from the insert. Blot dry and place in 1.7 ml. microfuge tube. Repeat for all samples. Add 250 ul Solvable™ (Tissue and Gel Solubilizer 0.5 M—Packard BioScience Co. Catalogue No. 6NE9100 (NEF910)). Close the tube and make sure that the tissue is completely submerged. Incubate at 60° C. overnight along with standards. In the morning, vortex the samples. Sometimes thick tissues will require additional time to complete the solution process. To Prepare Standard: Dissolve Melanin (Sigma cat. M 8631) in Solvable at 1 mg/ml. The solution may be warmed gently for 15 minutes at 37° C. Store solution in dark. To Prepare Standard Curve: Prepare dilutions from the standard containing 0 ug to 250 ug of melanin in a total of 250 ul Solvable. Incubate dilutions along with samples. To Read Assay: Cool samples and standards. Centrifuge at 13,000 rpm for 5 minutes to pellet. Fill microwell plate (C-96) with 200 ul each of samples and standards. There is some foaming of samples when pipetted. Blow gently across the samples to break bubbles prior to reading the plate. Read plate at […].

## O=C(O)C(=O)Cc1ccc(O)cc1 [4-hydroxyphenylpyruvate]
5 uM
  OD = 490 nm (melanin content): 1.236
50 uM
  OD = 490 nm (melanin content): 0.687
500 uM
  OD = 490 nm (melanin content): 0.565
1000 uM
  OD = 490 nm (melanin content): 0.453
Conclusion from Table 5, Melanoderm cultures
  effect on melanin synthesis: reduce melanin synthesis
